From patent US8338410B2, “Neuroprotective compounds and pharmaceutical compositions comprising them” (Biocodex, priority 2005, dated 2012)

Columns and labels:
[1] = system: mixed cultures of rat cortical neurones and astrocytes; test: Density of neuritic extensions marked by anti-neurofilament antibody, with or without excess glutamate; assay type: cell-based
Source text: The principle of the investigation consisted of evaluating the survival of cortical neurones in co-culture with astrocytes after the application of a neurotoxic agent, excess glutamate.
Neurone survival is quantified by the density of the system of neuritic extensions marked by an anti-neurofilament antibody in the absence or presence of glutamate.
(§1) • Cell type: Initial culture of cortical neurones from 14 day rat embryos and initial culture of cortical astrocytes from newborn rats. • Culture medium: DMEM-Ham F12 (Invitrogen 21331020) • B27 2% (invitrogen 17504044) • L-glutamine 2 mM (Invitrogen 25030024) • Penicillin 50 UI/ml—Streptomycin 50 μg/ml (Invitrogen 15070063) • Nerve Growth Factor 10 ng/ml (NGF, Invitrogen 13290.010) • Survival medium: MEM (Invitrogen 21090022) • L-glutamine 2 mM (Invitrogen 25030024) • Penicillin 50 UI/ml—Streptomycin 50 μg/ml (Invitrogen 15070063) • Supplement N2 (Invitrogen 17502-048) 1.2 Prior Cytotoxicity • Platelets: 96 wells • Culture time: 8 days • Cells/well: cortical neurones+astrocytes • Product range: from 100 μM then ratio 3 • Replicates: 3 • Cell/product contact: 48 hours • Evaluation parameters: microscopic observation and MTT hydrolysis. • MTT: 3-(4,5-dimethylthiozol-2-yl)-2,5-diphenyltetrazolium bromide 1.3 Treatment and Analysis of the Network of Extensions Marked with Antineurofilament Antibody
The cortical neurones were obtained from the cortex of 14 day rat embryos cultured in platelet culture medium 96 and then in a stove at 37° C. and 5% CO2 with saturated humidity. After 2 days culture astrocytes obtained from newborn rat cortex were seeded in the wells (in a ratio of 1 astrocyte to 4 neurones). After 10 days culture the mature neurones synthesised neurofilaments (structural protein specific to mature neurones); in addition to this these neurones expressed functional receptors to glutamate on their surfaces and could therefore be intoxicated.
On the 12th day of culture the medium was replaced by survival medium with or without etifoxine in 3 concentrations and the neurones were or were not intoxicated with glutamate (Sigma G1501) at a strength of 2 mM and 10 mM. Each culture condition was applied to 4 wells. The cultures were incubated for 2 periods (6 and 24 hours).
A positive control was carried out in the survival culture medium containing Nerve Growth Factor (NGF; 10 ng/ml) and basic Fibroblast Growth Factor (FGFb; 5 ng/ml) and the cells were intoxicated under the same conditions.
At the end of the two incubation periods (6 and 24 hours) the cell layers were fixed and marked with a anti-68- and 200 kD neurofilament monoclonal antibody (DAKO M0762) and then developed using a mouse anti-immunoglobulin goat antibody conjugate Alexia fluor 488 (Interchim A-11029). Controls without primary antibody were performed. All the controls were negative (no non-specific labelling). After extensive washing with PBS the preparations were observed under epi-fluorescence (Nikon Diaphot 300 microscope).
2 images were obtained for each culture well (4 wells per experimental condition) using a Nikon DXM1200F camera controlled by LUCIA 6.0 software.
All the images were obtained under the same conditions and with identical camera settings.
The densities of the networks of extensions marked with anti-neurofilament antibody were examined using LUCIA 6.0 software. Initial image processing made it possible to increase the intensity of the specific marking on the extensions. Areas in which marking was positive were binarised and the percentage marking per image was determined (marked surface area/total surface area examined).
The results (mean values±standard error with respect to the mean (SEM) were expressed as percentage marking per microscope field (n=8 measurements/culture conditions). 2-factor analysis of variance (Etifoxine and glutamate), followed by the Student Newman-Keuls multiple comparisons test was used for statistical comparison of the results. […]

[2] = system: cortical neurones in the presence of astrocytes in culture; test: Prior cytotoxicity, microscopic observation after 48 hours; assay type: cell-based; details: 100 μM, 48 hours incubation
Procedure: as §1
A first experiment was carried out (conventional test used to measure the level of cell survival) in order to investigate the cytotoxicity of etifoxine in relation to cortical neurones in the presence of astrocytes in culture and thus to determine the maximum non-toxic concentration of etifoxine.

[3] = system: mice subjected to hypobaric hypoxia; test: Hypobaric hypoxia in mice (survival time); assay type: in vivo, NMRI male mice; details: for Percentage variation / Survival time in seconds (m ± sem): Table 4: mice, hypobaric hypoxia 160 mmHg
Procedure: 1.1 Hypobaric Hypoxia in Mice
NMRI male mice from Janvier weighing between 25 and 30 grams were used after acclimatisation in the animal house for at least 7 days (t°=22±2° C.; humidity 50±20%; feed UAR “A04” SAFE (Augy, France) and tap water ad libitum; 12 hour night and day cycle (light from 7 a.m. to 7 p.m.).
The unfasting […] were distributed at random into lots of 10.
The protocol of Nakaniski et al. (1973) Life Sciences, 13, 467-474 was adapted for the purposes of the model.
Each mouse was placed in a dessicator (hermetically sealed enclosure) in which atmospheric pressure was reduced from 760 to 160 mmHg using a water pump. This pressure reduction was carried out in one minute and caused death of the control animals in approximately 1 minute.
The survival time of the animal, which corresponded to the difference between the time to death of the mouse assessed by respiratory arrest less the time required to induce the hypoxia was then noted.
The products under investigation were administered intraperitoneally (i.p.) (0.1 ml/10 g), 30 minutes before inducing hypobaric hypoxia, or orally (0.1 ml/10 g p.o.) 1 hour before hypoxia.
Etifoxine hydrochloride was dissolved in 1% Tween 80. The potassium cyanide (Merck) was dissolved in 0.9% NaCl.
The statistical test used was a one-factor analysis of variance to determine the treated groups, which differed from the control group receiving the vehicle, at a threshold of 5%.

[4] = system: rats subjected to histotoxic hypoxia induced by potassium cyanide; test: KCN (i.v.) hypoxia in rats (survival time); assay type: in vivo, Wistar male rats; details: for Percentage variation / Survival time in seconds (m ± sem): Table 5: rats, KCN 4 mg/kg i.p. (so in the source)
[5] = system: mixed cultures of rat cortical neurones and astrocytes; test: Density of neuritic extensions marked by anti-neurofilament antibody, with or without excess glutamate; assay type: cell-based; details: 10 μM of glutamate (so in the source), 6 hours, compound 1, 3 and 10 μM

FGF: positive control: survival culture medium containing Nerve Growth Factor (NGF; 10 ng/ml) and basic Fibroblast Growth Factor (FGFb; 5 ng/ml)
density of neurofilaments in the presence of glutamate ([1]; positive control NGF 10 ng/ml + FGFb 5 ng/ml, glutamate 2 mM, 24 hours): opposed the effects of 2 mM of glutamate
density of neurofilaments in the presence of glutamate ([1]; positive control NGF 10 ng/ml + FGFb 5 ng/ml, glutamate 2 and 10 mM, 6 hours): opposed the decrease in density of neurofilaments induced by glutamate

CC1(c2ccccc2)OC(N)=Nc2ccc(Cl)cc21 (stereo not shown) [desethyl-etifoxine, 2-amino-6-chloro-4-methyl-4-phenyl-4H-[3,1]benzoxazine]
astrocyte mortality, visual examination with a microscope [2]: astrocyte mortality was observed
density of marked neurofilaments ([1]; control culture medium (without glutamate), 6 hours, significant at 10 μM): increased the density of labelled neurofilaments in a statistically significant way
density of neurofilaments in the presence of glutamate ([1]; glutamate 2 mM, 6 hours, only 10 μM of compound): opposes the effect of glutamate
Percentage variation ([3]; i.p. dose 30): +34%
Survival time in seconds (m ± sem) ([3]; i.p. dose 30): 71.7 ± 4.8 s
Percentage variation ([3]; i.p. dose 50): +32%
Survival time in seconds (m ± sem) ([3]; i.p. dose 50): 70.7 ± 4.3 s
Percentage variation ([3]; i.p. dose 75): +30%
Survival time in seconds (m ± sem) ([3]; i.p. dose 75): 69.8 ± 2.7 s
Percentage variation ([3]; p.o. dose 100): +45%
Survival time in seconds (m ± sem) ([3]; p.o. dose 100): 61.0 ± 2.6 s
Percentage variation ([3]; p.o. dose 200): +126%
Survival time in seconds (m ± sem) ([3]; p.o. dose 200): 94.9 ± 9.9 s
Percentage variation ([3]; p.o. dose 300): +126%
Survival time in seconds (m ± sem) ([3]; p.o. dose 300): 94.8 ± 11.2 s
survival time ([3]; mice, hypobaric hypoxia, oral administration from 200 mg/kg): significant increase in survival time
anti-hypoxic activity ([3]; mice, hypobaric hypoxia, over 30 mg/kg i.p.): showed anti-hypoxic activity
Percentage variation ([4]; compound i.p. dose 30): −4%
Survival time in seconds (m ± sem) ([4]; compound i.p. dose 30): 55.0 ± 1.5 s
Percentage variation ([4]; compound i.p. dose 50): −3%
Survival time in seconds (m ± sem) ([4]; compound i.p. dose 50): 55.6 ± 1.5 s
Percentage variation ([4]; compound i.p. dose 75): +27%
Survival time in seconds (m ± sem) ([4]; compound i.p. dose 75): 72.7 ± 5.5 s
Percentage variation ([4]; compound p.o. dose 50): +3%
Survival time in seconds (m ± sem) ([4]; compound p.o. dose 50): 58.8 ± 1.9 s
Percentage variation ([4]; compound p.o. dose 100): +42%
Survival time in seconds (m ± sem) ([4]; compound p.o. dose 100): 81.3 ± 3.8 s
Percentage variation ([4]; compound p.o. dose 200): +43%
Survival time in seconds (m ± sem) ([4]; compound p.o. dose 200): 81.7 ± 4.1 s
survival time ([4]; rats, KCN hypoxia, 75 mg/kg i.p.): increased survival time in a non-significant manner
anti-hypoxic activity ([4]; rats, KCN hypoxia, over 100 mg/kg p.o.): showed anti-hypoxic activity
density of marked neurofilaments in the presence of glutamate [5]: opposes the decrease in the density of marked neurofilaments
